As usually defined, the IC50 is the concentration needed to halve the response being measured. A lower IC50 goes with greater potency.

Experiment [1] has as its target T1, porcine pancreatic lipase (Sus scrofa, UniProt P00591).
T1 sequence (P00591 1-450): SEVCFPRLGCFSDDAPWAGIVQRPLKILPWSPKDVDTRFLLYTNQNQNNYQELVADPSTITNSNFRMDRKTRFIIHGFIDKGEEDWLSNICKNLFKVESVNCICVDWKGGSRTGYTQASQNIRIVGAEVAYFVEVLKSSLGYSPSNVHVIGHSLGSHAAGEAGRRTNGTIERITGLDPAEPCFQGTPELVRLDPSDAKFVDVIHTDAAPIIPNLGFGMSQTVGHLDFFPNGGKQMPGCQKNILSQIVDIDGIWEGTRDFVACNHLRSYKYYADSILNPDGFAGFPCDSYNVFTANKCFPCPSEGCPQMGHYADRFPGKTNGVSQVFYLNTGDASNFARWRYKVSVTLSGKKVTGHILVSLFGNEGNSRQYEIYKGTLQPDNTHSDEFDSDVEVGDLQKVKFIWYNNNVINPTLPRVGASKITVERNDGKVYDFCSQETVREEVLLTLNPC
In words: Lipase enzyme activity, NaOH titration method (lipid micelles). In kind it is biochemical. To be noted: NaOH titration assay. As for the experimental part:
Measurement of Lipase Enzyme Activity Using a NaOH Titration Method
The inhibitory activity of the selected compound to pancreatic lipase was measured in the assay described in Pasquier et al; 1996, Vol 7, Nutritional Biochemistry, 293-302.
Log dose/response curves were constructed using a range of inhibitor concentrations.
Selected thieno-oxazinone compounds were tested in the NaOH titration assay. In this assay, the activity of porcine pancreatic lipase in a system containing lipid micelles is recorded. These conditions are therefore similar to those encountered in the gastrointestinal tract.

A further experiment concerns the target T2, human pancreatic lipase (Homo sapiens, UniProt P16233).
T2 sequence (P16233 17-465): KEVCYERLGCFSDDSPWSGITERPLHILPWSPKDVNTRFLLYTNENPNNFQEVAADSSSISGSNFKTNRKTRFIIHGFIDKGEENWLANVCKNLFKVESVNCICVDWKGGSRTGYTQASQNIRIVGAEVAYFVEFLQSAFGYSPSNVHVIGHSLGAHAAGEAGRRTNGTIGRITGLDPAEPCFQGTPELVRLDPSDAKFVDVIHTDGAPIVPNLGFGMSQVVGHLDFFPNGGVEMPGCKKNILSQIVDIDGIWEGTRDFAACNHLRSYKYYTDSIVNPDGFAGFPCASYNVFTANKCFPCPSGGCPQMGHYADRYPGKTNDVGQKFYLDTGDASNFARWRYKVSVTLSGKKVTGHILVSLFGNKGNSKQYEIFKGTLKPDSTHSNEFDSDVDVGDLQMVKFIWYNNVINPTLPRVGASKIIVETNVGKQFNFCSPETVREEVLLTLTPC
The experiment is described as follows: Lipase activity, quinine diimine dye colorimetric assay (Sigma Lipase-PS). In kind it is biochemical. As for the experimental part: Measurement of Lipase Activity Using a Quinine Diimine Dye Calorimetric Assay
The inhibitory activity of the selected compounds to pancreatic lipase was measured in the following assay available from Sigma Ltd (Lipase-PS™, catalog number 805-A):
The glycerol released from the action of pancreatic and monoglyceride lipase was oxidised to release H2O2. The peroxidase reaction step then produces a quinine dye which is pink in colour and absorbs light at a wavelength of 550 nm.
Individual test compounds were dissolved in DMSO (dimethyl sulphoxide) at 10 mM. DMSO was used to avoid any problems with compounds being water-insoluble.
For individual compounds, the IC50 (concentration at which lipase activity is inhibited to one half of the maximum) was calculated by measuring the inhibitory activity from log-dose response curves using a range of inhibitor concentrations.
A range of standard compounds were assayed in the quinine dye calorimetric assay which provides a rapid method to measure lipase inhibitory activity.

Molecules are shown by their SMILES.

In the case of `CCCCCCCCCCCCCCCCNc1nc2sc(C)cc2c(=O)o1` [Compound 45, 2-Hexadecylamino-6-methyl-4H-thieno-[2,3-d][1,3]oxazin-4-one], the 50% inhibitory concentration (IC50) was at most 1 µM in experiment [1] and under 0.1 µM at human pancreatic lipase.
For `Cc1cc2c(=O)oc(Nc3ccccc3)nc2s1` [Compound 46, 6-Methyl-2-phenylamino-4H-thieno[2,3-d][1,3]oxazin-4-one] the same measures were at most 1 µM and under 0.1 µM.
For `CCCCNc1nc2sc(C)cc2c(=O)o1` [Compound 47, 2-Butylamino-6-methyl-4H-thieno[2,3-d][1,3]oxazin-4-one] the same measures were at most 1 µM and under 0.1 µM.
For the compound `O=c1oc(Nc2ccc(Oc3ccccc3)cc2)nc2sc(Cl)cc12` [Compound 48, 6-Chloro-2-(4-phenoxy)phenylamino-4H-thieno[2,3-d][1,3]oxazin-4-one], the IC50 is at most 1 µM in experiment [1] and under 0.1 µM against human pancreatic lipase.
The matching figures for `CCCCCCCCCCCCc1cc2c(=O)oc(Nc3ccc(Oc4ccccc4)cc3)nc2s1` [Compound 49, 6-Dodecyl-2-(4-phenoxy)phenylamino-4H-thieno[2,3-d][1,3]oxazin-4-one]: at most 1 µM and under 0.1 µM.
As to `O=c1oc(Nc2ccc(Oc3ccccc3)cc2)nc2sc(Cc3ccccc3)cc12` [Compound 50, 6-Phenylmethyl-2-(4-phenoxy)phenylamino-4H-thieno[2,3-d][1,3]oxazin-4-one], the figures for the IC50 (in experiment [1]; against human pancreatic lipase) were at most 1 µM and under 0.1 µM, respectively.

These data come from patent publication US7407954B2, “Thieno-(1,3)-oxazin-4-ones with lipase inhibiting activity” (Alizyme Therapeutics Limited, priority 2001, dated 2008).
